We go through 1 compound from PMC11047580, “Design and Synthesis of Novel Amino and Acetamidoaurones with Antimicrobial Activities” (Antibiotics, 2024).

The subject of data set [1] is Fusarium oxysporum (DSM62316). In words: MIC assay. It counts as cell-based. The settings on record: two-fold serial dilutions in liquid media, n = 2–3.
In data set [2] the test system is Enterococcus faecium (DSM20477). Nature of the data set: MIC assay. The settings on record: two-fold serial dilutions in liquid media, n = 2–3. In kind it is cell-based.
The test system of data set [3] is Cryptococcus neoformans (DSM11959). Nature of the data set: MIC assay. It counts as cell-based. The conditions noted are these: two-fold serial dilutions in liquid media, n = 2–3.
For data set [4], the system named is Clostridium perfringens (ATCC13124). In words: microbe, parasite or virus in culture. It counts as cell-based. The settings on record: ATCC13124, read-out: MIC Clostridium perfringens (ATCC13124).
For data set [5], the system named is Mycobacterium tuberculosis H37Rv (mc^26230). In words: MIC assay (REMA). It counts as cell-based. The conditions noted are these: REMA microdilution, n = 2–3.
Data set [6] is described as follows: Cytotoxic assay (resazurin). The conditions noted are these: human, BEAS-2B normal lung epithelial cells.
The test system of data set [7] is Salmonella enterica (CIP80.39). Nature of the data set: MIC assay. In kind it is cell-based. The conditions noted are these: two-fold serial dilutions in liquid media, n = 2–3.
A short description of data set [8]: Cytotoxic assay (resazurin). The conditions noted are these: human, Caco-2.
Data set [9] deals with C. albicans DSM10697. In words: MIC assay. It counts as cell-based, Candida albicans. The conditions noted are these: Candida albicans, DSM10697; two-fold serial dilutions in liquid media; n = 2–3.
The subject of data set [10] is M. smegmatis ATCC700084. Nature of the data set: MIC assay (REMA). It counts as cell-based, Mycobacterium smegmatis. The conditions noted are these: Mycolicibacterium smegmatis, ATCC700084, REMA microdilution, n = 2–3.
The subject of data set [11] is Clostridium difficile (DSM1296). Nature of the data set: MIC assay. In kind it is cell-based. The settings on record: Clostridioides difficile, two-fold serial dilutions in liquid media, n = 2–3.
Data set [12] relates to Mycobacterium abscessus R(CIP 104536^T). In words: MIC assay (REMA). It counts as cell-based. The conditions noted are these: REMA microdilution, n = 2–3.
Data set [13] concerns intestinal cell line Caco-2. The conditions noted are these: human.
Data set [14] relates to Helicobacter pylori (ATCC43504). In words: MIC assay. In kind it is cell-based. The conditions noted are these: two-fold serial dilutions in liquid media, n = 2–3.

Converted amounts (≈) assume the structure as drawn. Bounds are passed on as bounds.

On to `CC(=O)Nc1ccc2c(c1)C(=O)/C(=C/c1cccc(OCc3ccccc3)c1)O2` [Compound 10, (Z)-N-(2-(3-(benzyloxy)benzylidene)-3-oxo-2,3-dihydrobenzofuran-5-yl)acetamide], for which the MIC in data set [1] is 25 µM (≈ 9.64 µg/mL); in data set [2], 100 µM (≈ 38.5 µg/mL); in data set [3], 25 µM (≈ 9.64 µg/mL); in data set [4], more than 100 µM; in [5] (Mycobacterium tuberculosis, H37RV), more than 100 µM; in data set [7], 25 µM (≈ 9.64 µg/mL). Besides, the MIC was 50 µM (≈ 19.3 µg/mL) in data set [9]; 50 µM (≈ 19.3 µg/mL) in [10]; 12.5 µM (≈ 4.82 µg/mL) in data set [11]; more than 100 µM in data set [12] (Mycobacteroides abscessus, CIP104536, R morphotype); 12.5 µM (≈ 4.82 µg/mL) in [14]. For the same compound, the “MIC Mycobacterium tuberculosis H37Rv (mc^26230)” value in data set [5] was “inactive”. The values for the CC50 at 48 h in data set [6] and in data set [8] were 169 µM and 200 µM, respectively. Further, the “MIC Mycobacterium abscessus R(CIP 104536^T)” value in data set [12] (R morphotype) was “inactive”. Further, in [13], the “TI with MIC of 0.78 µM, Caco-2” value turned out to be 255.8.
